From BindingDB's records for doi:10.1016/j.bmcl.2003.09.075 (Eli Lilly, 2003) come the findings set out here.

Experiment [1] addresses NS3 protease (Hepatitis C virus). Nature of the experiment: Inhibitory activity against HCV protease using replicon assay […].
The target is the same in experiment [2]. Nature of the experiment: Binding affinity towards Protease using PNA assay.
For experiment [3] the target is unchanged. Briefly: Inhibitory activity against Protease using replicon assay […] at 25 uM concentration.
For experiment [4] the target is unchanged. Briefly: Inhibitory activity against HCV protease in enzyme inhibition assay.

In the case of `CCC(C)NC(=O)C(=O)[C@H](CC(F)F)NC(=O)[C@@H]1[C@H]2CCC[C@H]2CN1C(=O)[C@@H](NC(=O)[C@@H](NC(=O)c1cnccn1)C(C)C)C(C)(C)C` (stereo partly drawn) [(1S,5S,6R)-2-((S)-3,3-Dimethyl-2-{(S)-3-methyl-2-[(pyrazine-2-carbonyl)-amino]-butyrylamino}-butyryl)-octahydro-cyclopenta[c]pyrrole-1-carboxylic acid [1-((S)-sec-butylaminooxalyl)-3,3-difluoro-propyl]-amide], the IC50 in experiment [1] amounted to 2610 nM. In addition, the affinity in experiment [2] corresponds to a Ki of 480 nM.
Turning to `CC(C)[C@H](NC(=O)c1cnccn1)C(=O)N[C@H](C(=O)N1C[C@@H]2CCC[C@@H]2[C@H]1C(=O)N[C@@H](CC(F)F)C(=O)C(=O)N[C@@H](C)c1ccccc1)C(C)(C)C` [(1S,5S,6R)-2-((S)-3,3-Dimethyl-2-{(S)-3-methyl-2-[(pyrazine-2-carbonyl)-amino]-butyrylamino}-butyryl)-octahydro-cyclopenta[c]pyrrole-1-carboxylic acid [3,3-difluoro-1-((S)-(S)-1-phenyl-ethylaminooxalyl)-propyl]-amide], the IC50 in experiment [1] was 630 nM. Further, in experiment [2], the inhibition constant Ki worked out at 120 nM.
Take `CCC[C@H](NC(=O)[C@@H]1[C@H]2CCC[C@H]2CN1C(=O)[C@@H](NC(=O)[C@@H](NC(=O)c1cnccn1)C(C)C)C(C)(C)C)C(=O)C(=O)NC(C)CC` (stereo partly drawn) [(1S,5S,6R)-2-((S)-3,3-Dimethyl-2-{(S)-3-methyl-2-[(pyrazine-2-carbonyl)-amino]-butyrylamino}-butyryl)-octahydro-cyclopenta[c]pyrrole-1-carboxylic acid [1-((S)-sec-butylaminooxalyl)-butyl]-amide]: the affinity in experiment [2] corresponds to a Ki of 210 nM. In experiment [3], this compound returned a half-inhibitory concentration (IC50) of 3480 nM.
With `CC(C)[C@H](NC(=O)c1cnccn1)C(=O)N[C@H](C(=O)N1C[C@@H]2CCC[C@@H]2[C@H]1C(=O)NC(CC(F)F)C(=O)C(=O)NC1CC1)C(C)C` (stereo partly drawn) [(1S,5S,6R)-2-((S)-3-Methyl-2-{(S)-3-methyl-2-[(pyrazine-2-carbonyl)-amino]-butyrylamino}-butyryl)-octahydro-cyclopenta[c]pyrrole-1-carboxylic acid (1-cyclopropylaminooxalyl-3,3-difluoro-propyl)-amide], the affinity in experiment [2], expressed as Ki, was 220 nM. In experiment [3], this compound had an IC50 of 3780 nM.
Compound `CC(C)[C@H](NC(=O)c1cnccn1)C(=O)N[C@H](C(=O)N1C[C@@H]2CCC[C@@H]2[C@H]1C(=O)N[C@@H](CC(F)F)C(=O)C(=O)N[C@@H](C)c1ccccc1)C(C)C` [(1S,5S,6R)-2-((S)-3-Methyl-2-{(S)-3-methyl-2-[(pyrazine-2-carbonyl)-amino]-butyrylamino}-butyryl)-octahydro-cyclopenta[c]pyrrole-1-carboxylic acid [3,3-difluoro-1-((S)-(S)-1-phenyl-ethylaminooxalyl)-propyl]-amide] came in with an IC50 in experiment [1] of 910 nM. Moreover, the inhibitory constant (Ki) in experiment [4] was 400 nM.
